Reference: US12214047B2, “FAP-activated proteasome inhibitors for treating solid tumors” (Trustees of Tufts College, priority 2011, dated 2025)
“Also recorded” adds a separate entry of the source. One block for each molecule: values may come before it.

Experiments:
DPPII = DPPII (Homo sapiens, UniProt Q9UHL4); test: In vitro cleavage of fluorogenic substrate ARI-3144 (AMC fluorescence); format: biochemical; details: fluorescence of released AMC
Description: (§1) The D-alanine at P2 of the fluorogenic substrate, N-(Quinoline-4-carbonyl)-D-Ala-Pro-AMC [AMC=7-amino-4-methylcoumarin] (ARI-3144), confers selectivity for FAP so that it is cleaved to release fluorescent AMC by recombinant FAP but not by other DPP-IV-like proteases (FIG. 3). […] FAP is reportedly not expressed constitutively in healthy tissue with the exception of endometrium, although FAP proteolytic activity is detectable in plasma. […] The ability to measure FAP proteolytic activity in tumors is required to evaluate the usefulness of ARI-3996 as a chemotherapeutic agent. Hitherto, FAP activity has not been quantified in human or mouse tumors. […] We will use the assay to select a mouse tumor model for investigation of ARI-3996's activity in which the increase in tumor-associated FAP activity relative to plasma is equivalent to that in human epithelial cancer.

DPPIV = DPPIV (Homo sapiens, UniProt P27487); test: as above; format: biochemical; details: fluorescence of released AMC
DPPIV, sequence (P27487 whole entry, species assumed): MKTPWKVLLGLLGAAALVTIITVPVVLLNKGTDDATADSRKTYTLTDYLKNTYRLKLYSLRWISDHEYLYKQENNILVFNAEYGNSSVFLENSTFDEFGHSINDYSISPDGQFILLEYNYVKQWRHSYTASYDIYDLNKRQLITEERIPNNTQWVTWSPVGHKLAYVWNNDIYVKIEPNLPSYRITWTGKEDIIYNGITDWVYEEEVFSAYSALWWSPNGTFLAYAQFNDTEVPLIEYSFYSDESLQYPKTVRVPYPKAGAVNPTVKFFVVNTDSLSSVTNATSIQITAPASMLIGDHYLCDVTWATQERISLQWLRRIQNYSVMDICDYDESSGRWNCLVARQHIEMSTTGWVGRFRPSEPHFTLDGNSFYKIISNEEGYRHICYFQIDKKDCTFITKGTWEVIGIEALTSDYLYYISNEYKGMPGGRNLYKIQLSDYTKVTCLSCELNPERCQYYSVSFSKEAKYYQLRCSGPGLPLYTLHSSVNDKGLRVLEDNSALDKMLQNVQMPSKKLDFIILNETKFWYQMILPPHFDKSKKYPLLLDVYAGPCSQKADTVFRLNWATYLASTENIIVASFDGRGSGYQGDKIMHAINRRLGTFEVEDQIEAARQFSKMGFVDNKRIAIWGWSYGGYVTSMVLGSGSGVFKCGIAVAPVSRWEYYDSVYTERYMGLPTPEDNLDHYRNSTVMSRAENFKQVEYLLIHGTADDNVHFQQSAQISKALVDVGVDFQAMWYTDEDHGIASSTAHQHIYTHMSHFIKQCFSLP
Description: (§2) Cleavage was monitored by measuring fluorescence of the AMC leaving group (excitation, 355 nm; emission, 460 nm).
as §1

PREP = target: T1, PREP (Homo sapiens, UniProt P48147); test: as above; format: biochemical; details: fluorescence of released AMC
T1 sequence (P48147 1-710): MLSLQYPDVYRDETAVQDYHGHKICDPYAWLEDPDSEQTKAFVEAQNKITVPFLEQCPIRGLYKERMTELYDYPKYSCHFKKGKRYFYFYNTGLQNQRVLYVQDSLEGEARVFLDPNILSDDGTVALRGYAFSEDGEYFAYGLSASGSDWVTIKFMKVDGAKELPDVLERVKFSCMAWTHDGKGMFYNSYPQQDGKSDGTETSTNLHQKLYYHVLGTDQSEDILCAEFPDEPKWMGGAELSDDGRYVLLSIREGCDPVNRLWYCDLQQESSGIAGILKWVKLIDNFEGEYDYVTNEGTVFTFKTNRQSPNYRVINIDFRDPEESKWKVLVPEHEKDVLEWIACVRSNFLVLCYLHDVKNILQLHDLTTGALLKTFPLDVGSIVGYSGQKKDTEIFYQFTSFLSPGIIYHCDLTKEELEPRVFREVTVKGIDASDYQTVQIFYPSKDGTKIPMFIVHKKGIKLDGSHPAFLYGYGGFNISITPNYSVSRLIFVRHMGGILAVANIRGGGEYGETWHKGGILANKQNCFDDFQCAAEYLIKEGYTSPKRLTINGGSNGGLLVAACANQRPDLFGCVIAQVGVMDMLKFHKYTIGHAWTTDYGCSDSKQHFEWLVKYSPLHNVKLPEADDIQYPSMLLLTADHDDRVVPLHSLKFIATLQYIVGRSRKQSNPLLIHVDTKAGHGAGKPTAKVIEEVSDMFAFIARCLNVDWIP
Description: as §2, §1

DPP9 = DPP9 (Homo sapiens, UniProt Q86TI2); test: as above; format: biochemical; details: fluorescence of released AMC
DPP9, sequence (Q86TI2 whole entry, species assumed): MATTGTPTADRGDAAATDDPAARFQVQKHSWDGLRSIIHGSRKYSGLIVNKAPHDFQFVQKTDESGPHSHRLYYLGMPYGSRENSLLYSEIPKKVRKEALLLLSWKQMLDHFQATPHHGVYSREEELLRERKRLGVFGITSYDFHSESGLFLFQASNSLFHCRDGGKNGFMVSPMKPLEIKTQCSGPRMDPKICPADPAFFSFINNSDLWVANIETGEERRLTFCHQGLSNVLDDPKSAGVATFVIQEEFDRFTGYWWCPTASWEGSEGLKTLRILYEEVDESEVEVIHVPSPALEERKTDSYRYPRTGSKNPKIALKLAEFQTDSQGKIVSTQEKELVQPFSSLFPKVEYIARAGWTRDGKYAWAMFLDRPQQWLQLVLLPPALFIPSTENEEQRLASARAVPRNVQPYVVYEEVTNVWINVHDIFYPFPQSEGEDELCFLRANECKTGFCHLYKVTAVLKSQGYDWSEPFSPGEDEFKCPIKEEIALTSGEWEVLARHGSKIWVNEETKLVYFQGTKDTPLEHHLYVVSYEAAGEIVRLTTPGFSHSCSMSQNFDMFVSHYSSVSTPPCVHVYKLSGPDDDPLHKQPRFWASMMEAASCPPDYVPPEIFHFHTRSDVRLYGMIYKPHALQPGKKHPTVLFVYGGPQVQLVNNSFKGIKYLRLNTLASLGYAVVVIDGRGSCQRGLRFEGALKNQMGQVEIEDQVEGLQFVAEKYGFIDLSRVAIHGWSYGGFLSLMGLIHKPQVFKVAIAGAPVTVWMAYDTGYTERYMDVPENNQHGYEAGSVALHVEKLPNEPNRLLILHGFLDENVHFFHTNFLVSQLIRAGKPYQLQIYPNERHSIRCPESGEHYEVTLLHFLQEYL
Description: as §2, §1

DPP8 = DPP8 (Homo sapiens, UniProt Q6V1X1); test: as above; format: biochemical; details: fluorescence of released AMC
DPP8, sequence (Q6V1X1 whole entry, species assumed): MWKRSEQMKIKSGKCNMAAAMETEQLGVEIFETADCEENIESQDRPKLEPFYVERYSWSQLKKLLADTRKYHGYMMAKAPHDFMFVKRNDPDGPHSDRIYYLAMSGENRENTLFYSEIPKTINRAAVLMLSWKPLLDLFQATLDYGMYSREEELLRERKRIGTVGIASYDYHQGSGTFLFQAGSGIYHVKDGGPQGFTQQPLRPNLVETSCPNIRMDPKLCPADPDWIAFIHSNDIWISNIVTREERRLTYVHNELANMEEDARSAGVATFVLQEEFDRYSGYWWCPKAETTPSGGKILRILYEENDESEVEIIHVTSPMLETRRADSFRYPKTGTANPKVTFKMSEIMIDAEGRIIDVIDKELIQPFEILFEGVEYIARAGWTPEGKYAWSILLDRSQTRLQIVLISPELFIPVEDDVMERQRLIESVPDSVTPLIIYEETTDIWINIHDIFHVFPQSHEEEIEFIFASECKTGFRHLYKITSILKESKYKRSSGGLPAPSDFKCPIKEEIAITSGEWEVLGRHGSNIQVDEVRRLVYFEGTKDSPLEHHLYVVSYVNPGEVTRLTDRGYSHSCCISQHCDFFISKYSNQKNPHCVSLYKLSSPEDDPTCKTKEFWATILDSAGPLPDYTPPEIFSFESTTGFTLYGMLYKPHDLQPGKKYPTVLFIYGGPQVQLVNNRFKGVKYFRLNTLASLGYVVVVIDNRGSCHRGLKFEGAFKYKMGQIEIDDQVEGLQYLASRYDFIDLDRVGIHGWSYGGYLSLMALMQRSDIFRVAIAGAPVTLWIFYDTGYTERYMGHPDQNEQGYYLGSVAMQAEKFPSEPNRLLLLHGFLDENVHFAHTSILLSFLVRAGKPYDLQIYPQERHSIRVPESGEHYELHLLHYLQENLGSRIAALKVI
Description: as §2, §1

recombinant FAP = target: T2, recombinant FAP (Homo sapiens, UniProt Q12884); test: as above; format: biochemical; details: fluorescence of released AMC
T2 sequence (Q12884 1-760): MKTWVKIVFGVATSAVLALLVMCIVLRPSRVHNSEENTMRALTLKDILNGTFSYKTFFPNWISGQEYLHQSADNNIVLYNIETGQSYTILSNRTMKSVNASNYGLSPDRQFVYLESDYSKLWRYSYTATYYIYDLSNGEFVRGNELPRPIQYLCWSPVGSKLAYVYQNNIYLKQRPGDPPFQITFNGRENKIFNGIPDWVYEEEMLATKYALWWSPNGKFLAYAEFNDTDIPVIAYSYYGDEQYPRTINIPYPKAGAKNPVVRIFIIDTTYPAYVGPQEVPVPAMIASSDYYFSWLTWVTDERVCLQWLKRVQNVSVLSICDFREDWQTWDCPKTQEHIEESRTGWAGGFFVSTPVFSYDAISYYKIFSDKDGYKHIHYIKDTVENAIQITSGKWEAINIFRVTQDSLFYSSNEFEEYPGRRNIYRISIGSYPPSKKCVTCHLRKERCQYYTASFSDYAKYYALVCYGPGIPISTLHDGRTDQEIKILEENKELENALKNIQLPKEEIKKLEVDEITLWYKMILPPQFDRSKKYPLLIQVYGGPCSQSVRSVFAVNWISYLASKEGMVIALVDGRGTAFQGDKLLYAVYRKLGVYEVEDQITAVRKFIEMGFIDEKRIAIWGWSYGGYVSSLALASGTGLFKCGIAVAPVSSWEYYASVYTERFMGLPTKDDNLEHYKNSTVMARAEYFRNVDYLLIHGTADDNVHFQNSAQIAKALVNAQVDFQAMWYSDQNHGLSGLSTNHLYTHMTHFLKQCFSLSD
Description: as §2, §1

normal cells = test: Cytotoxicity toward normal cells; format: cell-based
[1] = Tissue distribution of Velcade, ARI-3996 and ARI-2727D in mice; format: in vivo
Method: ARI-3996 is cleaved to ARI-2727D in and around tumors, thus facilitating the buildup of ARI-2727D in tumors.
Velcade®'s high toxicity would also result from the accumulation of the drug in the organs at the expense of accumulation in the tumor. […] Thus ARI-2727D is being selectively delivered to solid tumors via FAP activation of ARI-3996.
Finally, FAP activation was verified as the mode by which ARI-2727D tumor accumulation was taking place. In FIG. 24, ARI-2727D concentrations at 1 hour post-injection were compared with ARI-2727D concentrations 1 hour after injection of the prodrug form (ARI-3996).

solid tumors = test: Cytotoxicity toward solid tumors; format: cell-based
U266 tumor xenografts = test: Anticancer effects in U266 tumor-bearing mice (ELISA and bioluminescence); format: in vivo; details: ARI-3996 50 mg/kg, Velcade 0.5 mg/kg, twice a week for 2 weeks
Method: ARI-3996 consistently outperformed Velcade® in a mouse MM model. Mice bearing U266 tumor xenografts (2 female, 2 male) were treated with either the vehicle, ARI-3996, or Velcade® twice a week (day 1 and day 4) for 2 weeks. […] The inhibition of the tumor was evaluated using ELISA (μg/mL) and bioluminescence.

[2] = system: HPAF-II carcinoma xenografts; details: HPAF-II xenograft; ARI-3996 100 mg/kg i.p., bortezomib 1 mg/kg
Method: ARI-3996 and bortezomib were administered twice weekly (day (D)1/D4 schedule), and ARI-3996 was also given from day 1 to day 5 for 5 consecutive days (QD×5 schedule).
One-way ANOVA with Dunnett's post test for test versus vehicle (P<0.0001).
ARI-3996 b.i.d. s.c. and gemcitabine once per day i.p. were administered twice weekly. Mean±SEM.

MM cell lines = test: Cytotoxicity toward Multiple Myeloma cell lines; format: cell-based; details: various MM cell lines
[3] = system: FAP-transfected HEK tumor xenograft; test: Anticancer activity in FAP-transfected HEK tumor xenograft, 40-day study; format: in vivo, mice
Description: Having determined the levels of FAP expression in the HEK xenograft model, the anticancer activity of ARI-3996 was next evaluated in a 40-day study. […] It also suffers conformation-dependent inactivation over time.

[4] = Maximum tolerated dose in mice; format: in vivo
FAP = test: Activation of ARI-3996 to release ARI-2727 in FAP knockout versus FAP+ mice; format: in vivo; details: FAP+ mice treated with ARI-3996
Method: Mouse models may over-report systemic toxicity of ARI-3996 compared with that possible in cancer patients. This was further verified by treatment of FAP knockout mice with ARI-3996. In knockout mice (FIG. 21), no activation of ARI-3996 to release ARI-2727 took place, whereas in FAP+ mice a concentration of the released warhead ARI-2727 of 150 ng/mL was reached.

[5] = mice bearing PC3 prostate tumors; cited from earlier work

- Cleavage by DPPII (DPPII): no cleavage
- Cleavage by DPPIV (DPPIV): no cleavage
- Cleavage by PREP (PREP): no cleavage
- Cleavage by DPP9 (DPP9): no cleavage
- Cleavage by DPP8 (DPP8): no cleavage
- Cleavage by FAP (recombinant FAP): excellent substrate for FAP
SMILES: Cc1cc(=O)oc2cc(NC(=O)[C@@H]3CCCN3C(=O)[C@@H](C)NC(=O)c3ccnc4ccccc34)ccc12 [ARI-3144, N-(Quinoline-4-carbonyl)-D-Ala-Pro-AMC]

SMILES: CC(C)C[C@H](NC(=O)[C@H](Cc1ccccc1)NC(=O)c1cnccn1)B(O)O [bortezomib, reference compound]
- Cytotoxicity (normal cells): slightly lower toxicity
- Tissue distribution of the administered drug ([1]; mouse, in vivo): much higher concentrations in the heart, lung, kidney, liver, spleen, and lung than in the tumor
- Cytotoxicity (solid tumors): much lower
- Deaths / survival (U266 tumor xenografts): 1
- Antitumor effect at MTD [2]: refractory; also recorded: lacks significant antitumor activity
- Cytotoxicity (MM cell lines): extremely high potency
- Tumor growth inhibition [3]: hardly slowed the growth of the tumors
- MTD (maximum tolerated dose) [4]: 1 mg/kg

- Concentration of the released warhead ARI-2727 (FAP): 150 ng/mL
SMILES: CC(C)CC(NC(=O)C(N)Cc1cccc2ccccc12)B(O)O (centres unmarked) [ARI-2727D, Ala(1-Nal)-boroLeu]
- Cytotoxicity (normal cells): slightly lower toxicity
- Tissue distribution of ARI-2727D after injection of prodrug ([1]; 1 hour after injection of ARI-3996): highest concentration of ARI-2727D was found in the tumor
- Tissue distribution of ARI-2727D after direct injection ([1]; 1 hour post-injection of ARI-2727D): highest concentration of the drug accumulating in the kidneys and lung
- Tissue distribution of ARI-2727D formed from ARI-3996 ([1]; mice given ARI-3996): much higher relative concentrations in the tumor
- Cytotoxicity (solid tumors): much lower
- Cytotoxicity (MM cell lines): extremely high potency
- Tumor growth inhibition [3]: potent tumor inhibition

SMILES: CC(C)C[C@H](NC(=O)[C@H](Cc1ccccc1)NC(=O)c1cnccn1)B(O)O [^14C-bortezomib]
- Healthy organ exposure relative to tumor exposure [5]: ≤ 9 fold
